Assay results as given in US20240189319A1, “RIFAMYCIN ANALOGS IN COMBINATION WITH VANCOMYCIN AND USES THEREOF” (Regeneron Pharmaceuticals, Inc, priority 2021, published 2024).

Columns and labels:
[1] = test system: S. aureus MRSA strain NRS384; assay: S. aureus IV advanced disseminated infection mouse model, strain NRS384 (kidney burden); format: in vivo, Staphylococcus aureus; conditions: for kidney burden reduction in combination with vancomycin, compared with rifampicin plus vancomycin (in words): Example 3B versus Example 3A; for kidney burden, combination with vancomycin versus vancomycin alone (in words): 0.01-0.25 mg/kg + vancomycin
Description: (§1) To test the efficacy of rifamycin analogs (I) and (II) according to the disclosure in combination therapy with vancomycin in vivo, a 4-day intravenous disseminated infection model was utilized. S. aureus MSRA strain NRS384 or N315, where indicated, was grown overnight in tryptic soy broth (TSB) and sub-cultured to mid-logarithmic phase. Bacteria were then washed twice with PBS and resuspended in PBS at a concentration of 1.5×10^8 cfu/mL NRS384 or 6.0×10^8 N315. Six-week-old Balb/c mice were then infected intravenously through the tail vein with 100 uL of the bacterial suspension, for a final infectious dose of 1.5×10^7 cfu/mouse NRS384 or 6.0×10^7 N315. From one to three days post infection, indicated mice were treated with 110 mg/kg vancomycin subcutaneously twice daily where indicated. Rifamycin analogs (I) or (II) were administered subcutaneously at the indicated dose two days after infection. Mice were monitored for weight loss and body conditioning score throughout the infection. At four days post infection, mice were euthanized, and the S. aureus kidney burden was quantified by tissue homogenization followed by enumeration of colony forming units through serial dilution in PBS and plating onto trypticase soy agar plates. Data points represent the kidney burden from individual mice tested.
In this experiment, mice infected with S. aureus MSRA strain NRS384 were treated with vancomycin alone (control) or vancomycin in combination with 0.002 mg/kg to 25 mg/kg rifampicin, a commercially-available rifamycin analog control.
In this experiment, mice infected with S. aureus MSRA strain NRS384 were treated with vancomycin alone (control) or vancomycin in combination with 0.01-0.25 mg/kg rifamycin analog (I) or 0.01-0.25 mg/kg rifamycin analog (II).
In this experiment, mice infected with S. aureus MSRA strain NRS384 were treated with 25 mg/kg rifampicin (control) or 0.002-0.25 mg/kg rifamycin analog (II) alone or in combination with vancomycin, with vancomycin alone as a control.

[2] = test system: S. aureus MRSA strain N315; assay: S. aureus IV advanced disseminated infection mouse model, strain N315 (kidney burden); format: in vivo, Staphylococcus aureus; conditions: for Median cfu/kidney pair / kidney burden relative to limit of detection (in words) / bacterial load relative to limit of detection (in words): Example 3D; for Median cfu/kidney pair: day 4, LOD 250
Description: as §1
In this experiment, mice infected with S. aureus MSRA strain N315 were treated with 25 mg/kg rifampicin (control), or 0.01-0.75 mg/kg rifamycin analog (I), or 0.002-0.25 mg/kg rifamycin analog (II) in combination with vancomycin, with vancomycin alone as a control.

[3] = Example 3B, dose 0.01 mg/kg sc day 2 + vancomycin 110 mg/kg twice daily, day 4, LOD 250
[4] = Example 3B, dose 0.05 mg/kg sc day 2 + vancomycin 110 mg/kg twice daily, day 4, LOD 250
[5] = Example 3B, dose 0.25 mg/kg sc day 2 + vancomycin 110 mg/kg twice daily, day 4, LOD 250
[6] = dose 0.01 mg/kg + vancomycin 110 mg/kg twice daily
[7] = dose 0.05 mg/kg + vancomycin 110 mg/kg twice daily
[8] = dose 0.25 mg/kg + vancomycin 110 mg/kg twice daily

CO[C@H]1/C=C/O[C@@]2(C)Oc3c(C)c(O)c4c(O)c(c(/C=N/N5CCN(C)CC5)c(O)c4c3C2=O)NC(=O)/C(C)=C\C=C\[C@H](C)[C@H](O)[C@@H](C)[C@@H](O)[C@@H](C)[C@H](OC(C)=O)[C@@H]1C [Rifampicin, reference compound]
Median cfu/kidney pair ([1]; Example 3A, dose 0.002 mg/kg + vancomycin 110 mg/kg twice daily, day 4, LOD 250): 3.38E+06 cfu/kidney pair
Median cfu/kidney pair ([1]; Example 3A, dose 0.01 mg/kg + vancomycin 110 mg/kg twice daily, day 4, LOD 250): 3.00E+06 cfu/kidney pair
Median cfu/kidney pair ([1]; Example 3A, dose 0.05 mg/kg + vancomycin 110 mg/kg twice daily, day 4, LOD 250): 2.75E+06 cfu/kidney pair
Median cfu/kidney pair ([1]; Example 3A, dose 0.25 mg/kg + vancomycin 110 mg/kg twice daily, day 4, LOD 250): 2.50E+02 cfu/kidney pair
Median cfu/kidney pair ([1]; Example 3A, dose 25 mg/kg + vancomycin 110 mg/kg twice daily, day 4, LOD 250): 2.50E+02 cfu/kidney pair
Median cfu/kidney pair ([1]; Example 3C, dose 25 mg/kg + vancomycin 110 mg/kg twice daily, day 4, LOD 250): 2.50E+02 cfu/kidney pair
Median cfu/kidney pair ([1]; Example 3C, dose 25 mg/kg, without vancomycin, day 4, LOD 250): 7.07E+08 cfu/kidney pair
Median cfu/kidney pair ([2]; dose 25 mg/kg + vancomycin 110 mg/kg twice daily): 2.50E+02 cfu/kidney pair

CO[C@H]1/C=C/O[C@@]2(C)Oc3c(C)c(O)c4c(=O)c(c5oc6cc(OCCN(C)C)cc(O)c6nc-5c4c3C2=O)NC(=O)/C(C)=C\C=C\[C@H](C)[C@H](O)[C@@H](C)[C@@H](O)[C@@H](C)[C@H](OC(C)=O)[C@@H]1C [Rifamycin analog (I)]
kidney burden reduction in combination with vancomycin, compared with rifampicin plus vancomycin (in words) [1]: effective at reducing S. aureus kidney burden at lower doses than rifampicin
kidney burden, combination with vancomycin versus vancomycin alone (in words) ([1]; Example 3B): further reduced kidney burden
Median cfu/kidney pair [1, 3]: 5.88E+04 cfu/kidney pair
Median cfu/kidney pair [1, 4]: 5.75E+03 cfu/kidney pair
Median cfu/kidney pair [1, 5]: 2.50E+02 cfu/kidney pair
kidney burden relative to limit of detection (in words) ([2]; 0.01-0.75 mg/kg + vancomycin): at or near the limit of detection
Median cfu/kidney pair [2, 6]: 2.50E+02 cfu/kidney pair
Median cfu/kidney pair [2, 7]: 2.50E+02 cfu/kidney pair
Median cfu/kidney pair [2, 8]: 2.50E+02 cfu/kidney pair
Median cfu/kidney pair ([2]; dose 0.75 mg/kg + vancomycin 110 mg/kg twice daily): 2.50E+02 cfu/kidney pair
bacterial load relative to limit of detection (in words) ([2]; dose of 0.01 mg/kg in combination with vancomycin): below the limit of detection

CO[C@H]1/C=C/O[C@@]2(C)Oc3c(C)c(O)c4c(=O)c(c5oc6cc(OCCN(C)C)ccc6nc-5c4c3C2=O)NC(=O)/C(C)=C\C=C\[C@H](C)[C@H](O)[C@@H](C)[C@@H](O)[C@@H](C)[C@H](OC(C)=O)[C@@H]1C [Rifamycin analog (II)]
reduction in S. aureus kidney burden ([1]; 0.25 mg/kg as a monotherapy (Example 3C)): ~3 logs
kidney burden reduction in combination with vancomycin, compared with rifampicin plus vancomycin (in words) [1]: effective at reducing S. aureus kidney burden at lower doses than rifampicin
kidney burden, combination with vancomycin versus vancomycin alone (in words) ([1]; Example 3B): further reduced kidney burden
Median cfu/kidney pair [1, 3]: 2.50E+02 cfu/kidney pair
Median cfu/kidney pair [1, 4]: 2.50E+02 cfu/kidney pair
Median cfu/kidney pair [1, 5]: 3.38E+05 cfu/kidney pair
S. aureus kidney burden relative to limit of detection (in words) ([1]; Example 3B, lowest tested dose 0.01 mg/kg + vancomycin): below the limit of detection
combination with vancomycin versus monotherapies in reducing bacterial burden (in words) ([1]; Example 3C): more effective than either monotherapy
efficacy when rifamycin analog (II) and vancomycin are used in combination (in words) ([1]; Example 3C): enhanced
Median cfu/kidney pair ([1]; Example 3C, dose 0.002 mg/kg + vancomycin 110 mg/kg twice daily, day 4, LOD 250): 2.50E+02 cfu/kidney pair
Median cfu/kidney pair ([1]; Example 3C, dose 0.002 mg/kg, without vancomycin, day 4, LOD 250): 2.75E+07 cfu/kidney pair
Median cfu/kidney pair ([1]; Example 3C, dose 0.01 mg/kg + vancomycin 110 mg/kg twice daily, day 4, LOD 250): 2.50E+02 cfu/kidney pair
Median cfu/kidney pair ([1]; Example 3C, dose 0.01 mg/kg, without vancomycin, day 4, LOD 250): 5.13E+06 cfu/kidney pair
Median cfu/kidney pair ([1]; Example 3C, dose 0.05 mg/kg + vancomycin 110 mg/kg twice daily, day 4, LOD 250): 2.50E+02 cfu/kidney pair
Median cfu/kidney pair ([1]; Example 3C, dose 0.05 mg/kg, without vancomycin, day 4, LOD 250): 1.52E+08 cfu/kidney pair
Median cfu/kidney pair ([1]; Example 3C, dose 0.25 mg/kg + vancomycin 110 mg/kg twice daily, day 4, LOD 250): 3.75E+02 cfu/kidney pair
Median cfu/kidney pair ([1]; Example 3C, dose 0.25 mg/kg, without vancomycin (monotherapy), day 4, LOD 250): 2.13E+04 cfu/kidney pair
bacterial load relative to limit of detection (in words) ([1]; Example 3C, low doses including 0.05 and 0.002 mg/kg, in combination with vancomycin): below the limit of detection
kidney burden relative to limit of detection (in words) ([2]; 0.002-0.25 mg/kg + vancomycin): at or near the limit of detection
Median cfu/kidney pair ([2]; dose 0.002 mg/kg + vancomycin 110 mg/kg twice daily): 2.50E+02 cfu/kidney pair
Median cfu/kidney pair [2, 6]: 2.50E+02 cfu/kidney pair
Median cfu/kidney pair [2, 7]: 6.25E+02 cfu/kidney pair
Median cfu/kidney pair [2, 8]: 2.50E+02 cfu/kidney pair
bacterial load relative to limit of detection (in words) ([2]; dose of 0.002 mg/kg in combination with vancomycin): below the limit of detection

Vancomycin [reference compound]
Median cfu/kidney pair ([1]; Example 3A, Balb/c mice, vancomycin alone 110 mg/kg sc twice daily days 1-3, day 4 post infection, limit of detection 250): 1.30E+06 cfu/kidney pair
Median cfu/kidney pair ([1]; Example 3B, vancomycin alone 110 mg/kg sc twice daily, day 4, LOD 250): 3.50E+06 cfu/kidney pair
efficacy when rifamycin analog (II) and vancomycin are used in combination (in words) ([1]; Example 3C): enhanced
Median cfu/kidney pair ([1]; Example 3C, vancomycin alone 110 mg/kg sc twice daily, day 4, LOD 250): 1.13E+06 cfu/kidney pair
reduction in S. aureus kidney burden ([1]; vancomycin treatment alone (Examples 3A, 3B, 3C)): 2-3 log
Median cfu/kidney pair ([2]; vancomycin alone 110 mg/kg sc twice daily): 3.88E+04 cfu/kidney pair
reduction in S. aureus kidney burden ([2]; vancomycin treatment alone (Example 3D)): ~4 log
